In patent publication US8177962B2, “Metal corrosion inhibitor and hydrogen chloride formation inhibitor in a crude oil atmospheric distillation unit” (Kurita Water Industries, Ltd., priority 2002, dated 2012):

What was measured:
[1] = Base dissociation constant (Kb) calculated from pH meter measurement; type: physicochemical; conditions: for Kb (25° C.) / Kb (170° C.): Table 6; for Kb value (25° C.): Table 1
[2] = thermal decomposition at 760° C., GC/MS, FIG. 3
Procedure: Choline chloride was subjected to thermal decomposition GC/MS analysis. 5989A manufactured by Hewlett Packard was used as the GC/MS analyzer, and DB624 manufactured by J&W (0.32 mm×30 m, membrane thickness of 1.8 μm) was used as the column. The temperature for thermal decomposition of choline chloride was 760° C.

Compound | Kb (25° C.) [1] | Kb (170° C.) [1] | Kb value (25° C.) [1] | thermal decomposition products [2]
Dimethylethanolamine | 2.21 × 10^−5 | 3.38 × 10^−5 |  | 
NC1CCCCC1 [Cyclohexylamine] |  |  | 3.39 × 10^−4 | 
C1COCCN1 [Morpholine] |  |  | 2.09 × 10^−6 | 
NCCO [Monoethanolamine] | 2.60 × 10^−5 | 8.42 × 10^−6 | 3.15 × 10^−5 | 
C[N+](C)(C)CCO.[OH-] [Choline, (β-hydroxyethyl)trimethylammonium hydroxide] | 3.14 × 10^−3 | 8.40 × 10^−3 | 3.14 × 10^−3 | 
C[N+](C)(C)CCO.[Cl-] [Choline hydrochloride (choline chloride), choline chloride] |  |  |  | produces methyl chloride, trimethylamine and N,N-dimethylaminoethanol by thermal decomposition, but does not produce hydrogen chloride
